# Tests used:
# [1] = retrospective analysis of long term open-label studies in epilepsy: blood glucose; assay type: in vivo, human; details: 14 epilepsy patients, overweight (>100 kg) with high blood glucose (>115 mg/dl); study mean daily dosage 622 mg/day, mean duration 689 days
# [2] = animal model of kindled epilepsy; cited from earlier work
# [3] = human epilepsy; adjunctive therapy or monotherapy; cited from earlier work
# [4] = several rodent models; cited from earlier work
compound,measurement,setting,value
"CC1(C)O[C@@H]2[C@@H](CO[C@@]3(COS(N)(=O)=O)OC(C)(C)O[C@@H]23)O1 [topiramate, 2,3:4,5-bis-O-(1-methylethylidene)-β-D-fructopyranose sulfamate]",reduction in blood glucose,[1],5.8%
same,seizure block in kindled epilepsy model,[2],effectively block seizures
same,efficacy in treating seizures in clinical trials,[3],effective as adjunctive therapy or as monotherapy
same,seizure block in rodent models of epilepsy,[4],effectively block seizures

# Reference: patent US6362220B1, “Anticonvulsant derivatives useful in reducing blood glucose levels” (Ortho-McNeil Pharmaceutical, Inc., priority 1999, dated 2002)
